Patent US20260308159A1, “BICYCLIC HETEROARYLAMIDES HAVING GPR68 MODULATING ACTIVITY” (RECURSION PHARMACEUTICALS, INC., priority 2023, published 2026)
pIC50: −log10 of the molar value.

target: T1, human GPR68 (Homo sapiens, UniProt Q15743); experiment: GPR68 Biochemical Assay (Promega GloSensor cAMP assay, GPR68 antagonism); format: cell-based; details: HEK293T cells transiently expressing hGPR68, antagonism of pH 5.5 stimulated cAMP, 15 min, read-out: hGPR68 IC50
T1 construct: encoding full-length human GPR68 (uniprot ID: Q15743); expressed in transfected cells; host or cells: HEK293T
Protocol: GPR68 antagonism was determined using the Promega GloSensor™ CAMP assay (F. I. Wang et al., Methods 2021, S1046-2023 (21) 00249-8). HEK293T cells (obtained from ECACC, Cat 12022001, Lot no. 17E044) were cultured in T175 flasks (Greiner, Cat 660175) in DMEM (Gibco, Cat 11995-065) supplemented with 10% Fetal Bovine Serum (Gibco Cat 16000-044), and 100 u/mL Pen-Strep (Gibco, Cat 15140) at 37° C. and 5% CO2. GPR68 expression was achieved by transient transfection with a mammalian expression plasmid encoding full-length human GPR68 (uniprot ID: Q15743) under control of a CMV promoter. The day before transfection, cell media was aspirated and HEK293T cells were incubated with accutase (Sigma, Cat A6964) for 3-4 minutes 37° C. and 5% CO2 before being manually detached with excess DMEM and trituration. Cell density was determined by automated cell counting (Countess, Invitrogen) and adjusted to 6×10^6 cells/20 mL and transferred to 15 cm dishes (Thermo Fisher, Cat 130183) for overnight incubation at 37° C. and 5% CO2. The next day separate mammalian expression plasmids encoding hGPR68 (4 μg) and Promega GloSensor (8 μg) were diluted to 1 mL in Opti-MEM (Thermo Fisher Scientific, Cat 31985070) and incubated with 30 μL of lipofectamine 3000 (also diluted to 1 mL in Opti-MEM) for 15 minutes at room temperature and subsequently added dropwise to the plated cells. Post transfection cells were then incubated at 37° C. and 5% CO2 for at least 16 hours before transfer to assay plates the following day. Transfer was conducted by washing cells with PBS and incubating with accutase for 3-4 minutes 37° C. and 5% CO2 before being manually detached with excess DMEM and mild trituration. The suspension was then centrifuged at 192 RCF for 4 minutes in a 50 mL centrifuge tube (Greiner, Cat 227261).
Supernatant was removed by aspiration and the cell pellet was resuspended in DMEM+1% dialysed FBS (Gibco, Cat 26400-044) and 100 u/mL Pen-Strep to a cell density of 500 cells/μL. Cells were plated into poly-L-Lysine coated 384-well white assay plates (Corning, Cat 3570) at a final volume of 40 µL and a density of 20,000 cells/well before overnight incubation at 37° C. and 5% CO2. The following day media was manually ejected from the 384-well assay plate and replaced with 10 μL GloSensor substrate (Promega, Cat E1291) prepared in pH 8.0 assay buffer (1×HBSS, 10 mM HEPES, 10 mM MOPS). Cells were incubated with this solution for 60 minutes at room temperature in the dark. Test compounds or an equivalent volume of DMSO (vehicle) were added to compounds plates to create a 9-point, half-log concentration series for each compound with a maximum final assay concentration of 50 μM and a consistent final DMSO concentration of 0.5%. Assay buffer with 0.1% BSA and 0.01% ascorbic acid was prepared at three pHs: pH 8.0, pH 5.5 and pH 4.5. pH 8.0 and 4.5 were added to the compound plate as maximum and minimum effect controls whilst pH 5.5 was added to all compound wells to stimulate GPR68 to a level corresponding to […] of maximal stimulation after addition to the cells already in pH 8.0 (assay acceptance criteria range 70-90%). DMSO/Compound and buffer was added to the plated cells containing the GloSensor substrate and incubated for 15 minutes at room temperature before being read on a microplate reader (BMG PHERAstar, optic module LUM Plus with Gain 3600). Data was exported and analysed in excel and Graphpad prism (version 9). Assay QC acceptance criteria required the maximum and minimum controls to return a Z′≥0.5, the EC80 to be 80%±10% of expected and the reference ligand pIC50 to be within one-half-log unit of its historical IC50. Percent inhibition was calculated using the mean EC80 (pH 5.5) and mean minimum effect control (pH 8.0). Data were plotted as percentage inhibition, average±SEM. IC50, Emax, Emin, Actual max, actual min, R^2 and fit confidence were calculated using Graphpad Prism's sigmoidal dose-response function.

T1 sequence (Q15743 whole entry): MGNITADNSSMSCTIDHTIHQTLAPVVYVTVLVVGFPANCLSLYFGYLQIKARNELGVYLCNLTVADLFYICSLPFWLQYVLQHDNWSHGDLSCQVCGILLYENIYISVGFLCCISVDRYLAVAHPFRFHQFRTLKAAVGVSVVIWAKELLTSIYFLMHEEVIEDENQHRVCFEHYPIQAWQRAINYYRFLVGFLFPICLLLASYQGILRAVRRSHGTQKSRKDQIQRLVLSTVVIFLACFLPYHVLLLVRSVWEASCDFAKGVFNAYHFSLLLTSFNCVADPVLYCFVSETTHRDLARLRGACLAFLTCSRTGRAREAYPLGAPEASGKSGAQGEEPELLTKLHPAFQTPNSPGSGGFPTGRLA

Row | pIC50 | Compound
1 | > 7.30 | COCc1nn2c(C(=O)N[C@H]3COc4c(Cl)cccc43)ccnc2c1C(N)=O [Compound 169, N7-[(3R)-7-chloro-2,3-dihydrobenzofuran-3-yl]-2-(methoxymethyl)pyrazolo[1,5-a]pyrimidine-3,7-dicarboxamide]
2 | > 7.30 | COCc1nn2c(C(=O)NC3CCC(F)(F)CC3)ccnc2c1C(N)=O [Compound 80, N7-(4,4-difluorocyclohexyl)-2-(methoxymethyl)pyrazolo[1,5-a]pyrimidine-3,7-dicarboxamide]
3 | 5.30 to 6.30 | COCc1nn2c(C(=O)NC3CCC34CC(F)(F)C4)ccnc2c1C(N)=O (stereo not drawn) [Compound 131, N7-(2,2-difluorospiro[3.3]heptan-7-yl)-2-(methoxymethyl)pyrazolo[1,5-a]pyrimidine-3,7-dicarboxamide]
4 | > 7.30 | NC(=O)c1c(C2CC2)nn2c(C(=O)N[C@H]3CCS(=O)(=O)c4ccccc43)ccnc12 [Compound 236, 2-cyclopropyl-N7-[(4S)-1,1-dioxo-3,4-dihydro-2H-thiochromen-4-yl]pyrazolo[1,5-a]pyrimidine-3,7-dicarboxamide]
5 | > 7.30 | COCc1nn2c(C(=O)N[C@@H]3COc4cc(F)ccc43)ccnc2c1C(N)=O [Compound 167, N7-[(3S)-6-fluoro-2,3-dihydrobenzofuran-3-yl]-2-(methoxymethyl)pyrazolo[1,5-a]pyrimidine-3,7-dicarboxamide]
6 | 5.30 to 6.30 | Cc1nn2c(C(=O)N[C@H]3C[C@@H](C#N)C3)ccnc2c1C(N)=O [Compound 50, N7-(cis-3-cyanocyclobutyl)-2-methyl-pyrazolo[1,5-a]pyrimidine-3,7-dicarboxamide]
7 | > 7.30 | CCCc1nn2c(C(=O)NC3Cc4ccccc4C3)ccnc2c1C(N)=O [Compound 139, N7-indan-2-yl-2-propyl-pyrazolo[1,5-a]pyrimidine-3,7-dicarboxamide]
8 | 6.30 to 7.30 | COCc1nn2c(C(=O)NC3Cc4ccccc4C3)ccnc2c1C(N)=S [Compound 149, 3-carbamothioyl-N-indan-2-yl-2-(methoxymethyl)pyrazolo[1,5-a]pyrimidine-7-carboxamide]
9 | 6.30 to 7.30 | COCc1nc2c(C(=O)N[C@H]3CCS(=O)(=O)c4ccccc43)ccnn2c1C(N)=O [Compound 220, 2-(methoxymethyl)-N8-[(4S)-1,1-dioxo-3,4-dihydro-2H-thiochromen-4-yl]imidazo[1,2-b]pyridazine-3,8-dicarboxamide]
10 | > 7.30 | COCc1nn2c(C(=O)NC3CC(F)(F)c4ccccc43)ccnc2c1C(N)=O (single isomer, unassigned) [Compound 173, N7-(3,3-difluoroindan-1-yl)-2-(methoxymethyl)pyrazolo[1,5-a]pyrimidine-3,7-dicarboxamide]
11 | > 7.30 | COCc1nn2c(C(=O)Nc3cc4ccccc4n3C)ccnc2c1C(N)=O [Compound 118, 2-(methoxymethyl)-N7-(1-methylindol-2-yl)pyrazolo[1,5-a]pyrimidine-3,7-dicarboxamide]
12 | 6.30 to 7.30 | COCc1nc2c(C(=O)NC3CCS(=O)(=O)c4ccccc43)ccnn2c1C(N)=O (stereo not drawn) [Compound 221, N8-(1,1-dioxo-3,4-dihydro-2H-thiochromen-4-yl)-2-(methoxymethyl)imidazo[1,2-b]pyridazine-3,8-dicarboxamide]
13 | 6.30 to 7.30 | COCc1nc2c(C(=O)NC3Cc4cccnc4C3)ccnn2c1C(N)=O (stereo not drawn) [Compound 104, N8-(6,7-dihydro-5H-cyclopenta[b]pyridin-6-yl)-2-(methoxymethyl)imidazo[1,2-b]pyridazine-3,8-dicarboxamide]
14 | 4.30 to 5.30 | COc1ccc2[nH]c(C(C)NC(=O)c3ccnc4c(C(N)=O)cnn34)nc2c1 (stereo not drawn) [Compound 98, N7-[1-(5-methoxy-1H-1,3-benzodiazol-2-yl)ethyl]pyrazolo[1,5-a]pyrimidine-3,7-dicarboxamide]
15 | 6.30 to 7.30 | COCc1nn2c(C(=O)NC3Cc4cccnc4C3)ccnc2c1C(N)=O (single isomer, unassigned) [Compound 146, N7-(6,7-dihydro-5H-cyclopenta[b]pyridin-6-yl)-2-(methoxymethyl)pyrazolo[1,5-a]pyrimidine-3,7-dicarboxamide]
16 | 6.30 to 7.30 | COCc1nn2c(C(=O)NC3CCc4ncsc4C3)ccnc2c1C(N)=O (stereo not drawn) [Compound 190, 2-(methoxymethyl)-N7-(4,5,6,7-tetrahydro-1,3-benzothiazol-6-yl)pyrazolo[1,5-a]pyrimidine-3,7-dicarboxamide]
17 | > 7.30 | COCc1nn2c(C(=O)N[C@H]3COc4c3ccc(F)c4F)ccnc2c1C(N)=O [Compound 119, 2-(methoxymethyl)-N7-[(3R)-6,7-difluoro-2,3-dihydrobenzofuran-3-yl]pyrazolo[1,5-a]pyrimidine-3,7-dicarboxamide]
18 | > 7.30 | NC(=O)c1c(C2CC2)nc2c(C(=O)NC3CC(F)(F)c4ccccc43)ccnn12 (stereo not drawn) [Compound 209, 2-cyclopropyl-N8-(3,3-difluoroindan-1-yl)imidazo[1,2-b]pyridazine-3,8-dicarboxamide]
19 | 6.30 to 7.30 | COCc1nn2c(C(=O)NC3Cc4ccccc4C3)ccnc2c1C(=O)O [Compound 143, 7-(indan-2-ylcarbamoyl)-2-(methoxymethyl)pyrazolo[1,5-a]pyrimidine-3-carboxylic Acid]
20 | > 7.30 | COCc1nc2c(C(=O)NC3Cc4ccccc4C3)ccnn2c1C(N)=O [Compound 56, N8-indan-2-yl-2-(methoxymethyl)imidazo[1,2-b]pyridazine-3,8-dicarboxamide]
21 | 6.30 to 7.30 | COCc1nc2c(C(=O)NC3CCC(F)(F)CC3)ncnn2c1C(N)=O [Compound 212, N4-(4,4-difluorocyclohexyl)-6-(methoxymethyl)imidazo[2,1-f][1,2,4]triazine-4,7-dicarboxamide]
22 | > 7.30 | COCc1nc2c(C(=O)N[C@H]3CCOc4cc(F)ccc43)ccnn2c1C(N)=O [Compound 108, 2-(methoxymethyl)-N8-[(4S)-7-fluorochroman-4-yl]imidazo[1,2-b]pyridazine-3,8-dicarboxamide]
23 | > 7.30 | NC(=O)c1c(C2CC2)nc2c(C(=O)NC3Cc4cscc4C3)ccnn12 [Compound 208, 2-cyclopropyl-N8-(5,6-dihydro-4H-cyclopenta[c]thiophen-5-yl)imidazo[1,2-b]pyridazine-3,8-dicarboxamide]
24 | > 7.30 | COCc1nn2c(C(=O)NC3COc4c(F)cccc43)ccnc2c1C(N)=O (stereo not drawn) [Compound 192, N7-(7-fluoro-2,3-dihydrobenzofuran-3-yl)-2-(methoxymethyl)pyrazolo[1,5-a]pyrimidine-3,7-dicarboxamide]
25 | > 7.30 | COCc1nc2c(C(=O)NC3Cc4ccccc43)ccnn2c1C(N)=O (stereo not drawn) [Compound 106, N8-(7-bicyclo[4.2.0]octa-1,3,5-trienyl)-2-(methoxymethyl)imidazo[1,2-b]pyridazine-3,8-dicarboxamide]
26 | 5.30 to 6.30 | COCc1nn2c(C(=O)NC3CCc4nccn4C3)ccnc2c1C(N)=O (stereo not drawn) [Compound 187, 2-(methoxymethyl)-N7-(5,6,7,8-tetrahydroimidazo[1,2-a]pyridin-6-yl)pyrazolo[1,5-a]pyrimidine-3,7-dicarboxamide]

same assay, conditions: hGPR68 IC50, HEK293T cells transiently expressing hGPR68, antagonism of pH 5.5 stimulated cAMP, 15 min

Row | pIC50 | Compound
27 | 5.30 to 6.30 | COCc1cc(C(=O)NC2CC(F)(F)C2)n2nc(C)c(C(N)=O)c2n1 [Compound 39, N7-(3,3-difluorocyclobutyl)-5-(methoxymethyl)-2-methyl-pyrazolo[1,5-a]pyrimidine-3,7-dicarboxamide]
